Reference: patent US20140341922A1, “Method for Overcoming Tolerance to Targeted Anti-Cancer Agent” (SUN R&DB Foundation, priority 2011, published 2014)

Assays:
[1] = test system: integrin β3/Src signaling; assay: Western blot after integrin β3 or Src blockade; assay type: cell-based, human; set-up: p-EGFR, p-Src, and p-Akt levels: dose or concentration left out as unconfirmed
Description: Specifically, cixutumumab-resistant cells (LN686 and FADU) and cixutumumab-sensitive cells (OSC19) grown in PCPs were treated with B3A […] or PP2 […] for 1 hour prior to activation with IGF-1 (100 ng/ml).
In addition, the LN686 and FADU cells grown in the PCPs were untreated or treated with cixutumumab ([…]), PP2 (10 μM), an anti-integrin β1 monoclonal antibody (A11B2, 10 μg/ml), Ad-EV or Ad-CSK (10 pfu/cell) for 7 days prior to stimulation with IGF-1 (100 ng/ml, 30 min), and to detect the proteins, western blot analysis was performed.

[2] = test system: LN686, FADU, H226B, OSC19, and UMSCC38 cells; assay: MTS cell proliferation, combined treatment in PCPs; assay type: cell-based, human; details: 7 days
Description: Cells were cultured in 96-well poly(poly-2-hydroxyethyl methacrylate [HEMA])-coated plates (PCPs) or ultra-low attached plates (UAPs). Control IgG1 (25 μg/ml), cixutumumab (25 μg/ml), PP2 (10 μM), and an integrin β3 neutralizing antibody B3A (10 μg/ml) were diluted in culture media containing 10% FBS or IGF-1 and treated alone or in combination. To examine the effect on cancer cell proliferation, a 3-(4,5-dimethylthiazol-2-yl)-2,5-diphenyltetrazolium bromide (MTT) or 3-(4,5-dimethylthiazol-2-yl)-5-(3-carboxymethoxyphenyl)-2-(4-sulfophenyl)-2H-tetrazolium (MTS) assay was performed, and to evaluate the effect on anchorage-independent colony formation, a soft agar colony formation assay was performed according to a method in our previous report (Morgillo et al., 2006).
In addition, the LN686, FADU, H226B, OSC19, and UMSCC38 cells grown in PCPs were untreated or treated with cixutumumab (25 μg/ml), anti-integrin β3 mAb (αβ3, 10 μg/ml), PP2 (10 μM), or a combination thereof for 7 days. Each bar represents the mean±SD of 6 wells treated with the same sample in one representative experiment.

Compound: CC(C)(C)n1nc(-c2ccc(Cl)cc2)c2c(N)ncnc21 [PP2]
- p-EGFR, p-Src, and p-Akt levels ([1]; LN686, FADU and OSC19, 6 h): marked decreases
- cixutumumab-induced increases in p-Src, p-FAK, p-EGFR, p-Akt, and p-mTOR ([1]; LN686 or FaDu cells, integrin β3 mAb 100 μg/ml or PP2 10 μM): almost completely blocked
- antiproliferative activities of cixutumumab on combined treatment ([2]; cixutumumab-resistant cells (LN686, FADU, H226B)): significantly augmented
- antiproliferative activities of cixutumumab on combined treatment ([2]; cixutumumab-sensitive cells (OSC19 and UMSCC38)): not
